Experimental data: patent publication US10195201B2, “Heteroaryl-pyrimidinone compounds as PDE2 inhibitors” (Merck Sharp & Dohme Corp., priority 2015, dated 2019)
Where two headings read alike, the source gives them in different places.

Tests used:
Rhesus PDE2A3 = Rhesus PDE2A3 (Macaca mulatta, UniProt B3VTJ2); assay: PDE2 fluorescence polarization (IMAP FP) inhibition assay, rhesus enzyme; type: biochemical, rhesus macaque
Description: (§1) The activity of the compounds in accordance with the present invention as PDE2 inhibitors may be readily determined using a fluorescence polarization (FP) methodology (Huang, W., et al., J. Biomol Screen, 2002, 7: 215).
In a typical experiment the PDE2 inhibitory activity of the compounds of the present invention was determined in accordance with the following experimental method. Rhesus PDE2A3 was amplified from rhesus macaque brain cDNA (Biochain Institute, Hayward, Calif.) using primers based on human PDE2A sequence (accession NM_002599.3) where the forward primer containing a Kozak consensus was 5′-[…]-3′ and the reverse primer was 5′-[…]-3′. Amplification with Easy-A High-Fidelity PCR cloning enzyme (Stratagene, La Jolla, Calif.) was 95° C. for 2 minutes followed by thirty three cycles of 95° C. for 40 seconds, 52° C. for 30 seconds, and 72° C. for 2 minutes 48 seconds. Final extension was 72° C. for 7 minutes. The PCR product was TA cloned into pcDNA3.3-TOPO (Invitrogen, Carlsbad, Calif.) according to standard protocol. A consensus sequence was developed from multiple clones and then deposited into GenBank (EU812167). AD293 cells (Stratagene, La Jolla, Calif.) with 70-80% confluency were transiently transfected with rhesus PDE2A3/pcDNA3.3-TOPO using Lipofectamine 2000 according to manufacturer specifications (Invitrogen, Carlsbad, Calif.). Cells were harvested 48 hours post-transfection and lysed by sonication (setting 3, 10×5 sec pulses) in a buffer containing 20 mM HEPES pH 7.4, 1 mM EDTA and Complete Protease Inhibitor Cocktail Tablets (Roche, Indianapolis, Ind.). Lysate was collected by centrifugation at 75,000×g for 20 minutes at 4° C. and supernatant utilized for evaluation of PDE2 activity. The fluorescence polarization assay for cyclic nucleotide phosphodiesterases was performed using an IMAP® FP kit supplied by Molecular Devices, Sunnyvale, Calif. (product # R8139). […] Assays were performed at room temperature in 384-well microtiter plates with an incubation volume of 20.2 μL. Solutions of test compounds were prepared in DMSO and serially diluted with DMSO to yield 8 μL of each of 10 solutions differing by 3-fold in concentration, at 32 serial dilutions per plate. […] 0% of inhibition is determined by using DMSO (1% final concentrations).
A Labcyte Echo 555 (Labcyte, Sunnyvale, Calif.) is used to dispense 200 nL from each well of the titration plate to the 384 well assay plate. Ten microliters of a solution of enzyme (1/2000 final dilution from aliquots; sufficient to produce 20% substrate conversion) was added to the assay plate. Next 10 uL of a separate solution of the substrate FAM-labeled cAMP (50 nM final concentration product # R7506 from Molecular Devices) and the activator cGMP (1 uM final concentration), prepared in the assay buffer (10 mM Tris HCl, pH 7.2, 10 mM MgCl2, 0.05% NaN3 0.01% Tween-20, and 1 mM DTT) was added to the assay plate and shaken to mix. The reaction is allowed to proceed at room temperature for 60 minutes. A binding solution is then made from the kit components, comprised of 80% Solution A, 20% Solution B and binding reagent at a volume of 1/600 the total binding solution. The enzymatic reaction is stopped by addition of 60 μL of the binding solution to each well of the assay plates and the plates are sealed and shaken for 30 seconds. The plate was incubated at room temperature for at least one hour prior to determining the fluorescence polarization (FP). The parallel and perpendicular fluorescence of each well of the plate was measured using a Tecan Genios Pro plate reader (Tecan, Switzerland) or Perkin Elmer EnVision™ plate reader (Waltham, Mass.). Fluorescence polarization (mP) was calculated from the parallel (S) and perpendicular (P) fluorescence of each sample well and the analogous values for the median control well, containing only substrate (So and Po), using the following equation: Polarization (mP)=1000*(S/So−P/Po)/(S/So+P/Po).

human PDE2A1 = human PDE2A1 (Homo sapiens (Human), UniProt O00408); assay: PDE2 fluorescence polarization (IMAP FP) inhibition assay, human enzyme; type: biochemical
Description: as §1
Selectivity for PDE2, as compared to other PDE families, was assessed using the IMAPR technology. Human PDE10A2 enzyme was prepared from cytosolic fractions of transiently transfected HEK cells. All other PDE's were GST Tag human enzyme expressed in insect cells and were obtained from BPS Bioscience (San Diego, Calif.): PDE1A (Cat#60010), human PDE2A1(Cat#60020), PDE3A (Cat#60030), PDE4A1A (Cat#60040), PDE5A1 (Cat#60050), PDE6C (Cat#60060), PDE7A (Cat#60070), PDE8A1 (Cat#60080), PDE9A2 (Cat#60090), PDE11A4 (Cat#60110).
Assays for PDE 1 through 11 were performed in parallel at room temperature in 384-well microtiter plates with an incubation volume of 20.2 μL. Solutions of test compounds were prepared in DMSO and serially diluted with DMSO to yield 30 μL of each of ten solutions differing by 3-fold in concentration, at 32 serial dilutions per plate. […] A Labcyte POD 810 (Labcyte, Sunnyvale, Calif.) was used to dispense 200 nL from each well of the titration plate to make eleven copies of the assay plate for each titration, one copy for each PDE enzyme. A solution of each enzyme (dilution from aliquots, sufficient to produce 20% substrate conversion) and a separate solution of FAM-labeled cAMP or FAM-labeled cGMP from Molecular Devices (Sunnyvale, Calif., product # R7506 or cGMP#R7508), at a final concentration of 50 nM were made in the assay buffer (10 mM Tris HCl, pH 7.2, 10 mM MgCl2, 0.05% NaN3 0.01% Tween-20, and 1 mM DTT). Note that the substrate for PDE2 is 50 nM FAM cAMP containing 1000 nM of cGMP. The enzyme and the substrate were then added to the assay plates in two consecutive additions of 10 μL and then shaken to mix. The reaction was allowed to proceed at room temperature for 60 minutes. A binding solution was then made from the kit components, comprised of 80% Solution A, 20% Solution B and binding reagent at a volume of 1/600 the total binding solution. The enzymatic reaction was stopped by addition of 60 μL of the binding solution to each well of the assay plate. The plates were sealed and shaken for 10 seconds. The plates were incubated at room temperature for one hour, then the parallel and perpendicular fluorescence was measured using a Tecan Genios Pro plate reader (Tecan, Switzerland). The apparent inhibition constants for the compounds against all 11 PDE's was determined from the parallel and perpendicular fluorescent readings as described for PDE10 FP assay using the following apparent KM values for each enzyme and substrate combination: PDE1A (FAM cGMP) 70 nM, human PDE2A1 (FAM cAMP) 10,000 nM, PDE3A (FAM cAMP) 50 nM, PDE4A1A (FAM cAMP) 1500 nM, PDE5A1 (FAM cGMP) 400 nM, PDE6C (FAM cGMP) 700 nM, PDE7A (FAM cAMP) 150 nM, PDE8A1 (FAM cAMP) 50 nM, PDE9A2 (FAM cGMP) 60 nM, […] (FAM cAMP) 150 nM, PDE11A4 (FAM cAMP) 1000 nM. The intrinsic PDE2 inhibitory activity of a compound which may be used in accordance with the present invention may be determined by these assays. […]

[1] = LabA, read-out: rhPDE2 Ki (nM) LabA
[2] = LabB, read-out: rhPDE2 Ki (nM) LabB
[3] = LabB, read-out: hPDE2 Ki (nM) LabB
[4] = LabA, read-out: hPDE2 Ki (nM) LabA

human PDE2A1, sequence (O00408 other isoform, or with tags, fused parts or gaps): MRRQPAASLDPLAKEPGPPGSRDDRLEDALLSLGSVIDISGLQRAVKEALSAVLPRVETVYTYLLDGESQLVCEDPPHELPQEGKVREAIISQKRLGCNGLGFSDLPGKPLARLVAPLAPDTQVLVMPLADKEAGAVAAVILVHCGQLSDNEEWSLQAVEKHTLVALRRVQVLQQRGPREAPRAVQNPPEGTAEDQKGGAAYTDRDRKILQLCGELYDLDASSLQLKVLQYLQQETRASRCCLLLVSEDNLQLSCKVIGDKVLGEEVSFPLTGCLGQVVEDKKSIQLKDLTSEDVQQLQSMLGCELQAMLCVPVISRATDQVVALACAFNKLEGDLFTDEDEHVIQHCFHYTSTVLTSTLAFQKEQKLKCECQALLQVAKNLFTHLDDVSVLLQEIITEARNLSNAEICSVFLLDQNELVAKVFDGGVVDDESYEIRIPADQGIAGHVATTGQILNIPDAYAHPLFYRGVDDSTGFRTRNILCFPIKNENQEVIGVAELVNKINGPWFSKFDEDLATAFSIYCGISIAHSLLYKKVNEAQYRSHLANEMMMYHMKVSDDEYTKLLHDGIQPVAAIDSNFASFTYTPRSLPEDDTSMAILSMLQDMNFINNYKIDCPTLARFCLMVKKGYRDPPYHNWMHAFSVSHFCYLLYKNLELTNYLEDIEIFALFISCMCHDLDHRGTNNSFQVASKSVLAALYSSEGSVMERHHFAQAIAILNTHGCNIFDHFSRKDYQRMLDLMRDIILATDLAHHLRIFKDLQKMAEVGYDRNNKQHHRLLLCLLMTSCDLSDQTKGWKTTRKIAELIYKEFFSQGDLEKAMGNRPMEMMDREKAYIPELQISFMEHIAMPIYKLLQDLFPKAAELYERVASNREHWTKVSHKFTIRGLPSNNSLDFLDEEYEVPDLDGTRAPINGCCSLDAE
Rhesus PDE2A3, sequence (B3VTJ2 1-941): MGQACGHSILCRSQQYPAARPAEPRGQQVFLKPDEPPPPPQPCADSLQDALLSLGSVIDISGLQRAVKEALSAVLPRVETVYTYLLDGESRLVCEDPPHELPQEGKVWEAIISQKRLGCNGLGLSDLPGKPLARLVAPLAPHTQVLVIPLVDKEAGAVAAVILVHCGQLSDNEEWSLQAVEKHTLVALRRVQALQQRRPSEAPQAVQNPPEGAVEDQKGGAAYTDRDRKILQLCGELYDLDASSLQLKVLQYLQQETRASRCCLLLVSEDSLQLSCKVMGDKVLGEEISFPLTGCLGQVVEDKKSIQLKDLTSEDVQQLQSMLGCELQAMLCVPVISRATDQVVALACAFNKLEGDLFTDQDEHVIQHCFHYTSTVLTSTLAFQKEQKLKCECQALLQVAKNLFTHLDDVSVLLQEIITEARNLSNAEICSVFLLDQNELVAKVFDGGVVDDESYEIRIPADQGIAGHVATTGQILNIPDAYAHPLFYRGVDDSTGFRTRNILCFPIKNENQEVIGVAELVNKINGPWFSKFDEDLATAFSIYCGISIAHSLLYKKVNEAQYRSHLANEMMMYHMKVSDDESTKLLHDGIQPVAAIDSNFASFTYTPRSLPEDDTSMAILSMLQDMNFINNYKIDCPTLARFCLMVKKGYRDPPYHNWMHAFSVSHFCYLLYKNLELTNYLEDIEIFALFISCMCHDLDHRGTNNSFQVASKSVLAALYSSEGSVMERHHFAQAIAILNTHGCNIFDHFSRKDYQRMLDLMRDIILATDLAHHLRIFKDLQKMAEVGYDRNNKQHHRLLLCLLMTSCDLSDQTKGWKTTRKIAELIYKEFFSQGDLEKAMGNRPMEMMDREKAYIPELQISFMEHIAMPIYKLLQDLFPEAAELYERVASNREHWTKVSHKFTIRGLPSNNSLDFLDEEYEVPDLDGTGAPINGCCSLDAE

Row | Ki (Rhesus PDE2A3; [1]) | Ki (Rhesus PDE2A3; [2]) | Ki (human PDE2A1; [3]) | Ki (human PDE2A1; [4]) | SMILES
1 | 0.2 nM | 0.4 nM | 0.4 nM |  | COc1ccc(Cc2nc(-c3cn(C(C)c4ccc(C(F)(F)F)cc4F)cn3)cc(=O)[nH]2)cc1OC (single isomer, unassigned) [Example 19, (R)- or (S)-2-(3,4-dimethoxy-benzyl)-6-(1-(1-(2-fluoro-4-(trifluoromethyl)phenyl)ethyl)-1H-imidazol-4-yl)pyrimidin-4(3H)-one]
2 | 21 nM | 57 nM | 62 nM | 13 nM | Cc1nc(-c2nnc([C@H](C)c3ccc(C(F)(F)F)cc3)s2)cc(=O)[nH]1 (single isomer, unassigned) [Example 7]
3 |  | 20 nM | 22 nM |  | Cc1nc(-c2nnc([C@H](C)c3ccc(C(F)(F)F)cc3F)s2)cc(=O)[nH]1 (single isomer, unassigned) [Example 4]
4 | 86 nM | 159 nM |  | 79 nM | Cc1nc(-c2nnc([C@H](C)c3ccc(C(F)(F)F)cc3)o2)cc(=O)[nH]1 (single isomer, unassigned) [Example 9]
5 | 106 nM |  |  | 76 nM | Cc1nc(-c2cn(C(C)c3ccc(C(F)(F)F)cc3)cn2)cc(=O)[nH]1 (single isomer, unassigned) [Example 17, (R)- or (S)-2-methyl-6-(1-(1-(4-(trifluoro-methyl)phenyl)ethyl)-1H-imidazol-4-yl) pyrimidin-4 (3H)-one]
6 |  | 19 nM | 18 nM |  | Cc1nc(-c2nnc([C@H](C)c3ccc(C(F)(F)F)cc3F)s2)cc(=O)[nH]1 (single isomer, unassigned) [Example 5]
7 | 2.3 nM |  |  | 1.4 nM | COc1ccc(Cc2nc(-c3cn(C(C)c4ccc(C(F)(F)F)cc4F)cn3)cc(=O)[nH]2)cc1OC (single isomer, unassigned) [Example 18, (R)- or (S)-2-(3,4-dimethoxy-benzyl)-6-(1-(1-(2-fluoro-4-(trifluoromethyl)phenyl)ethyl)-1H-imidazol-4-yl)pyrimidin-4(3H)-one]
8 | 352 nM |  |  | 403 nM | Cc1nc(-c2ncc(C(C)c3ccc(C(F)(F)F)cc3)o2)cc(=O)[nH]1 (stereo not shown) [Example 8, 2-Methyl-6-(5-(1-(4-(trifluoromethyl)phenyl)ethyl)oxazol-2-yl)pyrimidin-4(3H)-one]
9 | 10 nM | 13 nM | 12 nM | 6 nM | Cc1nc(-c2nnc([C@H](C)c3ccc(C(F)(F)F)cc3)s2)cc(=O)[nH]1 (single isomer, unassigned) [Example 6]
10 | 24 nM | 46 nM |  | 21 nM | Cc1nc(-c2cn([C@H](C)c3ccc(C(F)(F)F)cc3F)cn2)cc(=O)[nH]1 (single isomer, unassigned) [Example 15]
11 | 516 nM |  |  | 312 nM | Cc1nc(-c2cc(=O)[nH]c(C)n2)cc(C(C)c2ccc(C(F)(F)F)cc2)n1 (stereo not shown) [Example 48, 2,2′-dimethyl-6′-(1-(4-(trifluoromethyl)phenyl)ethyl)-[4,4′-bipyrimidin]-6(1H)-one]
12 |  |  | 212 nM |  | Cc1nc(-c2cc(C(C)c3ccc(OC(F)(F)F)c(F)c3)ncn2)cc(=O)[nH]1 (single isomer, unassigned) [Example 41, (S)- or (R)-6′-(1-(3-fluoro-4-(trifluoro-methoxy)phenyl)ethyl)-2-methyl-[4,4′-bipyrimidin]-6(1H)-one]
13 | 96 nM | 481 nM |  | 60 nM | Cc1nc(-c2ncc(C(C)c3ccc(C(F)(F)F)cc3)s2)cc(=O)[nH]1 (stereo not shown) [Example 1, 2-Methyl-6-(5-(1-(4-(trifluoromethyl)phenyl)ethyl)thiazol-2-yl)pyrimidin-4(3H)-one]

Row | SMILES | Ki (Rhesus PDE2A3; [1]) | Ki (Rhesus PDE2A3; [2]) | Ki (human PDE2A1; [3]) | Ki (human PDE2A1; [4])
14 | Cc1nc(-c2cc(C(C)c3ccc(C(F)(F)F)cc3)ncn2)cc(=O)[nH]1 (single isomer, unassigned) [Example 33] |  |  | 20 nM | 
